Like-named read-outs stand apart in the source and are kept apart here.
What was measured:
SK-Br3 cells = assay: MTT cell viability / isobologram analysis, SK-Br3; assay type: cell-based, human
Method: FIG. 10. […] Cells in exponential growth were harvested, seeded at a concentration of ˜5×10^3 cells/200 μl/well into 96-well plates and allowed to attach overnight. […] Agents were studied in combination concurrently, and they were not renewed during the entire period of cell exposure. After treatment, the medium was removed and replaced by fresh drug-free medium (100 μl/well), and MTT (5 mg/ml in phosphate-buffered saline [PBS]) was added to each well at a 1/10 volume. After 2-3 hours at 37° C., the supernatants were removed, 100 μl of dimethylsulfoxide was added to each well, and the plates were agitated. Absorbances were measured at 570 nm using a multiwell plate reader (Model Anthos Labtec 2010 1.7 reader). The cell viability effects from exposure of cells to each agent alone and to their combination were analyzed by generating concentration-effect curves as a plot of the fraction of unaffected (surviving) cells versus drug concentration. Dose-response curves were plotted as percentages of the control cell absorbances, which were obtained from control wells treated with appropriate concentrations of vehicles that were processed simultaneously. For each treatment, cell viability was evaluated as a percentage using the following equation: (A570 of treated sample/A570 of untreated sample)×100. […] All statistical tests were two-sided. […]

[1] = tested on: Wild-type Her-2/neu promoter; assay: Luciferase reporter driven by wild-type Her-2/neu promoter, transient transfection; assay type: cell-based, human; settings: for Luciferase activity relative to vehicle-treated wild-type promoter cells: GLA 10 μg/mL for 24 hours; for inhibition at 20 µM: Homo sapiens, OA 20 μM, 24 hours, read-out: reduction (inhibition) of Her-2/neu gene promoter activity
Method: (§1) FIG. 11. Luciferase activity in transiently transfected cells. Luciferase activity was assayed in cells that were transiently transfected with a pGL2-Luc construct containing a luciferase reporter gene under the control of a Her-2/neu promoter fragment containing a wild-type (top panel, left) or mutant (top panel, right) PEA3 binding site as described herein. The magnitude of activation in Her-2/neu promoter-luciferase-transfected cells was determined after normalization of the luciferase activity obtained in cells co-transfected with equivalent amounts of the empty pGL2-Luciferase vector lacking the Her-2/neu promoter (-luciferase) and the internal control plasmid pRL-CMV. This control value was used to calculate the relative change in the transcriptional activities of Her-2/neu-promoter-luciferase-transfected cells in response to treatments after normalization to pRL-CMV. The activity of the wild-type promoter in untreated control cells was defined as 100%. […] One-factor ANOVA was used to analyzed differences in the percentages of luciferase activity between the various treatment groups.
The luciferase activities reported in Table 3 were assayed in cells that were transiently transfected with a pGL2-luciferase (Promega Inc., Madison, Wis.) construct containing a luciferase reporter gene under the control of a Her-2/neu promoter fragment containing a wild-type or mutant PEA3 binding site, as previously described by Xing et al. (36), incorporated herein by reference. […] Luciferase activity from cell extracts was detected with a Luciferase Assay System (Promega Inc.).
(§2) To conduct Her-2/neu promoter activity assays, cells were initially transfected using FuGENE 6 transfection reagent (Roche Biochemicals, Indianapolis, Ind.) as directed by the manufacturer. Overnight-serum starved cancer cells seeded into 24-well plates (˜5×10^4 cells/well) were transfected in low-serum (0.1% FBS) media with 1.5 μg/well of the pGL2-luciferase (Promega, Madison, Wis.) construct containing a luciferase reporter gene driven by either an intact (Her-2/neu wild-type PEA3-binding site-luciferase) or by a mutated (Her-2/neu mutated PEA3-binding site-luciferase) Her-2/neu promoter fragment along with […] of the internal control plasmid pRL-CMV, which was used to correct for transfection efficiency. […] Approximately 24 hours after treatments, luciferase activities from cell extracts were detected with a luciferase Assay System following manufacturer's instructions (Promega, Madison, Wis., USA) using a Victor^2™ Multilabel Counter (Perkin-Elmer Life Sciences).

[2] = tested on: Mutant Her-2/neu promoter; assay: Luciferase reporter driven by Her-2/neu promoter with mutated PEA3 binding site; assay type: cell-based, human; settings: for Luciferase activity relative to vehicle-treated wild-type promoter cells: mutant promoter, GLA 10 μg/mL for 24 hours
Method: as §1
The luciferase activities reported in Table 3 were assayed in cells that were transiently transfected with a pGL2-luciferase (Promega Inc., Madison, Wis.) construct containing a luciferase reporter gene under the control of a Her-2/neu promoter fragment containing a wild-type or mutant PEA3 binding site, as previously described by Xing et al. (36), incorporated herein by reference. Cells were transfected using FuGENE 6 transfection reagent (Roche Biochemicals, Indianapolis, Ind.) as directed by the manufacturer and were treated with vehicle (ethanol; EtOH) or γ-linolenic acid (10 μg/mL for 24 hours). Luciferase activity from cell extracts was detected with a Luciferase Assay System (Promega Inc.).
To examine whether the increased PEA3 levels might mediate the inhibition of Her-2/neu transcription in GLA-treated cells, the effect of GLA on transcription from a Her-2/neu promoter bearing a mutated PEA3 binding sequence, at −33 to −28, that is known to abolish PEA3 binding (36, incorporated herein by reference) was investigated. For this analysis we used the same luciferase reporter gene construct described above but containing the HER-2/neu promoter mutation at the PEA3 binding site (5′-GAG GAA-3′ at −33 to −28 changed to 5′-GAG CTC-3′).
as §2

Lipogenic Cells = assay: Effect of fatty acids, lipogenic cells (Table 2); assay type: cell-based
AP-2 = AP-2 expression levels; assay type: cell-based, human

SMILES: CCCCCC=CCC=CCC=CCCCCC(=O)O [GLA, 6,9,12-octadecatrienoic acid]
- increase in sensitivity to trastuzumab (SK-Br3 cells; concurrent 10 μg/ml GLA): ~40 fold
- Luciferase activity relative to vehicle-treated wild-type promoter cells ([1]; BT-474): 35% (95% CI = 33-37%)
- Luciferase activity relative to vehicle-treated wild-type promoter cells ([1]; MDA-MB-231): 80% (95% CI = 75-85%)
- Luciferase activity relative to vehicle-treated wild-type promoter cells ([1]; MDA-MB-453): 26% (95% CI = 25-27%)
- Luciferase activity relative to vehicle-treated wild-type promoter cells ([1]; NCI-N87): 38% (95% CI = 34-42%)
- Luciferase activity relative to vehicle-treated wild-type promoter cells ([1]; SK-Br3): 54% (95% CI = 51-57%)
- Luciferase activity relative to vehicle-treated wild-type promoter cells ([1]; SK-OV3): 21% (95% CI = 16-26%)
- Luciferase activity relative to vehicle-treated wild-type promoter cells ([2]; BT-474): 12% (95% CI = 9-15%)
- Luciferase activity relative to vehicle-treated wild-type promoter cells ([2]; MDA-MB-231): 61% (95% CI = 59-63%)
- Luciferase activity relative to vehicle-treated wild-type promoter cells ([2]; MDA-MB-453): 11% (95% CI = 3-19%)
- Luciferase activity relative to vehicle-treated wild-type promoter cells ([2]; NCI-N87): 19% (95% CI = 12-26%)
- Luciferase activity relative to vehicle-treated wild-type promoter cells ([2]; SK-Br3): 21% (95% CI = 18-24%)
- Luciferase activity relative to vehicle-treated wild-type promoter cells ([2]; SK-OV3): 14% (95% CI = 6-22%)
- Effect of Fatty Acids: Lipogenic Cells (Lipogenic Cells): No effect
- AP-2 expression (AP-2; GLA-treated cells): does not appear to regulate

SMILES: CCCCCCCCC=CCCCCCCCC(=O)O [OA, 9-octadecenoic acid]
- sensitization factor (IC50 without OA / IC50 with OA) (SK-Br3 cells; OA co-exposure, sensitization to trastuzumab): 27 fold
- inhibition at 20 µM ([1]; NCI-N87, 24 h, NCI-N87): 55%
- inhibition at 20 µM ([1]; SK-BR-3, 24 h, SK-Br3): ≤ 56%
- inhibition at 20 µM ([1]; SK-OV-3, 24 h, SK-OV3): ≤ 75%
- reduction of Her-2/neu gene promoter activity ([1]; MCF-7/Her2-18 transfectants, OA supplementation): up to 22%
- reduction of wild-type Her-2/neu promoter luciferase reporter activity ([1]; MCF-7/neo cells, OA treatment): up to 12%
- reduction of Her-2/neu promoter activity ([1]; MCF-7 breast cancer cells (physiological Her-2/neu levels), OA): < 20%
- regulation of luciferase reporter driven by promoter with mutated PEA3 site ([2]; OA-supplemented SK-Br3, SK-OV3 and NCI-N87 cells): not subject to negative regulation
- Effect of Fatty Acids: Lipogenic Cells (Lipogenic Cells): No effect
- AP-2 expression levels (AP-2; Her-2/neu-overexpressing cancer cells, OA supplementation): failed to modulate

— patent publication US20070207975A1, “Materials and methods for treating and preventing Her-2/neu overexpressing, FAS-elevated cancer cells” (EVANSTON NORTHWESTERN HEALTHCARE, priority 2006, published 2007)
